This note sets out measurements from paper PMC4751996 (Journal of medicinal chemistry, 2015).

Residues, ends and D or L forms follow the SMILES beside them.

In assay [1] the test system is MDA-MB-231 and HCT116 cell lines. The experiment in a line: Growth inhibition screen, 3 day exposure, relative DNA content. The following applies: 72 h; for inhibition at 1 µM: read-out: Drug Effect (avg) (1 μM); for inhibition at 10 µM: read-out: Drug Effect (avg) (10 μM).
Assay [2] concerns the target T1, hRRM1 (Homo sapiens, UniProt P23921).
T1 sequence (P23921 1-792): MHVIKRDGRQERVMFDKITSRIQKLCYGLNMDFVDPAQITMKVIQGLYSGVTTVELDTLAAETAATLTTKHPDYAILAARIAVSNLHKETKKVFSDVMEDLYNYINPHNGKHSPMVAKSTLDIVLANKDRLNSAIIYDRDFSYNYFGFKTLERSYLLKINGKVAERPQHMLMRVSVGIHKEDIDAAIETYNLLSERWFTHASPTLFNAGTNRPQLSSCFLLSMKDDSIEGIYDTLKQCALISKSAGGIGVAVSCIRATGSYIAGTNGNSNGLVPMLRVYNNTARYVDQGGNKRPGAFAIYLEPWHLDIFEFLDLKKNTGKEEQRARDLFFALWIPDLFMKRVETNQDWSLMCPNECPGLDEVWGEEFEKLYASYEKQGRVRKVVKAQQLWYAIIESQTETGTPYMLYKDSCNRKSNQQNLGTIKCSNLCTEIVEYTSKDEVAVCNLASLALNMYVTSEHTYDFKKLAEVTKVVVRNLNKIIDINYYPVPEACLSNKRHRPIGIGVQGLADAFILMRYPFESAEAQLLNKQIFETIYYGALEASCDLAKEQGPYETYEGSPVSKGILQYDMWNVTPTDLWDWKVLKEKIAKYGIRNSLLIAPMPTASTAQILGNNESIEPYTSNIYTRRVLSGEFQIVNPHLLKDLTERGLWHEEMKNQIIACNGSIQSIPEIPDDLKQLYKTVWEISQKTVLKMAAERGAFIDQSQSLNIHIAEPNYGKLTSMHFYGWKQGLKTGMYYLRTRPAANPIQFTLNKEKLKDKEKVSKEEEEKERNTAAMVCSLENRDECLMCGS
The experiment in a line: Tryptophan fluorescence quenching of hRRM1 at fixed ligand concentration. The following applies: ligand 50 μM; hRRM1 0.1 mg/mL; excitation 295 nm.

For assay [3], the target named is T1, hRRM1. The experiment in a line: Gel filtration chromatography of hRRM1 oligomeric state. The settings on record: 50 μM dATP alone.

On to `OC(COc1ccc(OCC(O)CN2CCN(C3c4ccccc4-c4ccccc43)CC2)cc1)CN1CCN(C2c3ccccc3-c3ccccc32)CC1` (stereo not shown) [Compound 1], for which, in assay [1], the inhibition at 1 µM was -39.6% and the inhibition at 10 µM was found to be 88%. The corresponding values for `CCOC(=O)C(NC(=O)CN[C@H]1CCCc2sccc21)C(=O)OCC` [Compound 2] are -19.9% and 53.1%.

`CCCCCCCCCCCCCCNC(=O)[C@@H](N)CCN` [Compound 3]: in assay [1], the inhibition at 1 µM is 7.2% and the inhibition at 10 µM was found to be 69%. Turning to `CCC(C)(C)c1ccc(OCCCCNC(=O)c2cc(Oc3ccc([N+](=O)[O-])cc3)c3ccccc3c2O)c(C(C)(C)CC)c1` [Compound 5], in assay [1], the inhibition at 1 µM stood at 3.8% and the inhibition at 10 µM was 39.8%. For `CCCOc1ccc(C(=O)OCCN(CC)CC)cc1NS(=O)(=O)/C=C/c1ccccc1` [Compound 6], in that order: -3.3% and 4.3%. For `CC(NCCCCCO)c1cc(OCc2ccccc2)cc(OCc2ccccc2)c1` (stereo not shown) [Compound 8], in that order: -7.6% and 3.6%. For `CCOC(=O)C[C@@H](CC(=O)NCCN[C@H](C)c1ccc(O)c(C(=O)OC)c1)OC(C)=O` [Compound 9], in that order: 9.8% and 9.6%. Regarding `CCCCCCCCCCCCCCCC(=O)N[C@@H](CCCCN)C(=O)N[C@@H](CCCCN)C(=O)OC` [Compound 10], in assay [1], the inhibition at 1 µM is -21.9% and the inhibition at 10 µM is -8.9%.

With `CC(C)C[C@H](NC(=O)[C@@H]1CCCN1C(=O)[C@H](Cc1cnc[nH]1)NC(=O)[C@@H](NC(=O)[C@H](Cc1ccc(O)cc1)NC(=O)[C@@H](NC(=O)[C@@H](N)CCCNC(=N)N)C(C)C)C(C)C)C(=O)O` [Compound 100207] (H-RVYVHPL-OH), the “% Fluorescence quenching” value at hRRM1 [2] is “No tryptophan fluorescence quenching”. The same measure, in the same setting: as for `CC(C)=CCC/C(C)=C/CNC(=O)CNC(c1ccc[nH]1)C(F)(F)F` (stereo not shown) [Compound 184612], the entry is “No tryptophan fluorescence quenching”. As for `Nc1ncnc2c1ncn2[C@H]1C[C@H](O)[C@@H](COP(=O)(O)OP(=O)(O)OP(=O)(O)O)O1` [dATP, deoxyadenosine 5′-triphosphate], the “hexamer to dimer ratio based on integration of the peaks” value on hRRM1 [3] is reported as “approximately 3 fold”.
